This is an account of results in patent US8404729B2, “Heterocyclic tetracyclic tetrahydrofuran derivatives” (Janssen Pharmaceutica, NV, priority 2005, dated 2013).

Experiment [1] addresses T1, 5-HT2A receptors (Rattus norvegicus, UniProt P14842).
T1 construct: the tissue used is the frontal cortex of the rat; from tissue; host or cells: rat frontal cortex
Briefly: In vitro binding affinity for 5-HT2A receptor (3H-ketanserin radioligand binding). To be noted: frontal cortex of the rat, read-out: 5-HT2A (pIC50) (converted). As for the experimental part: The interaction of the compounds of Formula (I) with 5-HT2A and 5-HT2C receptors was assessed in in vitro radioligand binding experiments. […] During the incubation, the radioligands bind to the receptor. When equilibrium of binding is reached, the receptor bound radioactivity is separated from the non-bound radioactivity, and the receptor bound activity is counted. The interaction of the test compounds with the receptors is assessed in competition binding experiments. Various concentrations of the test compound are added to the incubation mixture containing the tissue preparation and the radioligand. Binding of the radioligand will be inhibited by the test compound in proportion to its binding affinity and its concentration. The radioligand used for 5-HT2A binding affinity is ^3H-ketanserin and the tissue used is the frontal cortex of the rat. The radioligand used for 5-HT2c binding affinity is ^3H-mesulergine and the tissue used is the choroid plexus of the pig.

Experiment [2] addresses T2, 5-HT2C receptors (Sus scrofa, UniProt K7GSR7).
T2 construct: the tissue used is the choroid plexus of the pig; from tissue; host or cells: pig choroid plexus
T2 sequence (K7GSR7 1-457): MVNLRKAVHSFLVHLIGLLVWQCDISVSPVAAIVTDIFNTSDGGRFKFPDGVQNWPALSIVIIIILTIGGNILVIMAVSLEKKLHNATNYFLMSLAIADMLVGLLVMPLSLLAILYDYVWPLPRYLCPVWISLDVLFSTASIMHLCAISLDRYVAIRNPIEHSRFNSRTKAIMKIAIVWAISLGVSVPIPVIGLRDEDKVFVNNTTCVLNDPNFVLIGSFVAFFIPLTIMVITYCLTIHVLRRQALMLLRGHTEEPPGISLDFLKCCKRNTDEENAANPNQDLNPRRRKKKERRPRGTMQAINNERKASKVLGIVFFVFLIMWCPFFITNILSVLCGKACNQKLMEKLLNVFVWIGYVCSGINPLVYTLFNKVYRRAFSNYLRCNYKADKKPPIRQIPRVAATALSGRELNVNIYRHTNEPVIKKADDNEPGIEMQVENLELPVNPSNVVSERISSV
The experiment is described as follows: In vitro binding affinity for 5-HT2C receptor (3H-mesulergine radioligand binding). To be noted: choroid plexus of the pig, read-out: 5-HT2C (pIC50) (converted). As for the experimental part: The interaction of the compounds of Formula (I) with 5-HT2A and 5-HT2C receptors was assessed in in vitro radioligand binding experiments. In general, a low concentration of a radioligand with a high binding affinity for the receptor is incubated with a sample of a tissue preparation enriched in a particular receptor (1 to 5 mg tissue) in a buffered medium (0.2 to 5 ml). During the incubation, the radioligands bind to the receptor. When equilibrium of binding is reached, the receptor bound radioactivity is separated from the non-bound radioactivity, and the receptor bound activity is counted. The interaction of the test compounds with the receptors is assessed in competition binding experiments. Various concentrations of the test compound are added to the incubation mixture containing the tissue preparation and the radioligand. Binding of the radioligand will be inhibited by the test compound in proportion to its binding affinity and its concentration. The radioligand used for 5-HT2A binding affinity is ^3H-ketanserin and the tissue used is the frontal cortex of the rat. The radioligand used for 5-HT2c binding affinity is ^3H-mesulergine and the tissue used is the choroid plexus of the pig.

Experiment [3] deals with T3, human Dopamine D2L receptor (Homo sapiens, UniProt P14416).
T3 construct: expressed in transfected cells; host or cells: CHO cells
T3 sequence (P14416 whole entry): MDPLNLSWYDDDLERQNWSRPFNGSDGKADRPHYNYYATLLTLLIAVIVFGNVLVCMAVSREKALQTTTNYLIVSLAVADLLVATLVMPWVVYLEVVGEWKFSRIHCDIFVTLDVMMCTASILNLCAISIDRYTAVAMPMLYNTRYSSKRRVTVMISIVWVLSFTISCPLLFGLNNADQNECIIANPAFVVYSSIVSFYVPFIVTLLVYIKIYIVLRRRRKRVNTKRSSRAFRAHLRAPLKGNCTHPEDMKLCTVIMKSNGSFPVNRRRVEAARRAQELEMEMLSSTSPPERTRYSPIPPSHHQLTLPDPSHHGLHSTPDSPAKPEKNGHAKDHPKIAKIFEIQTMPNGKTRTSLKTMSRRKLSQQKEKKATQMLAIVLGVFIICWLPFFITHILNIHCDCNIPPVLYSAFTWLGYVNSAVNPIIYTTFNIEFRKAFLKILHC
Briefly: In vitro binding affinity for human D2L receptor ([3H]Spiperone). To be noted: membranes of human D2L receptor-transfected CHO cells, read-out: D2 (pIC50) (converted). On the procedure: Frozen membranes of human Dopamine D2L receptor-transfected CHO cells were thawed, briefly homogenised using an Ultra-Turrax T25 homogeniser and diluted in Tris-HCl assay buffer containing NaCl, CaCl2, MgCl2, KCl (50, 120, 2, 1, and 5 mM respectively, adjusted to pH 7.7 with HCl) to an appropriate protein concentration optimised for specific and non-specific binding. Radioligand [^3H]Spiperone (NEN, specific activity ˜70 Ci/mmol) was diluted in assay buffer at a concentration of 2 nmol/L. Prepared radioligand (50 μl), along with 50 μl of either the 10% DMSO control, Butaclamol (10^−6 mol/l final concentration), or compound of interest, was then incubated (30 min, 37° C.) with 400 μl of the prepared membrane solution. Membrane-bound activity was filtered through a Packard Filtermate harvester onto GF/B Unifilterplates and washed with ice-cold Tris-HCl buffer (50 mM; pH 7.7; 6×0.5 ml). Filters were allowed to dry before adding scintillation fluid and counting in a Topcount scintillation counter. Percentage specific bound and competition binding curves were calculated using S-Plus software (Insightful).

Experiment [4] deals with T4, NET (Rattus norvegicus, UniProt Q63380).
T4 construct: Cortex from rat brain was collected and homogenised; from tissue; host or cells: rat brain cortex
T4 sequence (Q63380 1-617): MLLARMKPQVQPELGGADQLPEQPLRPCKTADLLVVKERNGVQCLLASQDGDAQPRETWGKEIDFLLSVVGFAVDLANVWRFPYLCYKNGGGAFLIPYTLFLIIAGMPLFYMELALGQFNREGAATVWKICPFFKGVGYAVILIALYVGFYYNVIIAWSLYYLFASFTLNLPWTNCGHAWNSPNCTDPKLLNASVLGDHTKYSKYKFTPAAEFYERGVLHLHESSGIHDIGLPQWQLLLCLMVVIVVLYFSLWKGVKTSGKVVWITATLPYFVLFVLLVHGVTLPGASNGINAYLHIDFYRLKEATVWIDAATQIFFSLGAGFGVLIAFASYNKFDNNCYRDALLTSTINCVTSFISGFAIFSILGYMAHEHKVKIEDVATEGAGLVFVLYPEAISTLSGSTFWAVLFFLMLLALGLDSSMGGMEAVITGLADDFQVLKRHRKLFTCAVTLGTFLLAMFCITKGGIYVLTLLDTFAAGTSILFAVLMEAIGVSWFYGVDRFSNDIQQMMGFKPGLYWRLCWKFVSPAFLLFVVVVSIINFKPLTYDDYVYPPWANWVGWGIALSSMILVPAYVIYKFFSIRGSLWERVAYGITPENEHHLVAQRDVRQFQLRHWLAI
The experiment is described as follows: In vitro determination of NET reuptake inhibition ([3H]Nixosetine binding). Conditions: rat brain cortex membranes, read-out: NET-inhibition (pIC50) (converted). On the procedure:
Cortex from rat brain was collected and homogenised using an Ultra-Turrax T25 and a Dual homogeniser in ice-cold homogenising buffer containing Tris, NaCl and KCl (50 mM, 120 mM and 5 mM, respectively, pH 7.4) prior to dilution to an appropriate protein concentration optimised for specific and non-specific binding. […] Membrane-bound activity was detected by filtration through a Packard Filtermate harvester onto GF/B Unifilterplates, washed with ice-cold Tris-HCl buffer, containing NaCl and KCl (50 mM, 120 mM and 4 mM; pH 7.4; 6×0.5 ml). Filters were allowed to dry for 24 h before adding scintillation fluid. Scintillation fluid was allowed to saturate filters for 24 h before counting in a Topcount scintillation counter. Percentage specific bound and competition binding curves were calculated using S-Plus software (Insightful).

T1 sequence (P14842 whole entry): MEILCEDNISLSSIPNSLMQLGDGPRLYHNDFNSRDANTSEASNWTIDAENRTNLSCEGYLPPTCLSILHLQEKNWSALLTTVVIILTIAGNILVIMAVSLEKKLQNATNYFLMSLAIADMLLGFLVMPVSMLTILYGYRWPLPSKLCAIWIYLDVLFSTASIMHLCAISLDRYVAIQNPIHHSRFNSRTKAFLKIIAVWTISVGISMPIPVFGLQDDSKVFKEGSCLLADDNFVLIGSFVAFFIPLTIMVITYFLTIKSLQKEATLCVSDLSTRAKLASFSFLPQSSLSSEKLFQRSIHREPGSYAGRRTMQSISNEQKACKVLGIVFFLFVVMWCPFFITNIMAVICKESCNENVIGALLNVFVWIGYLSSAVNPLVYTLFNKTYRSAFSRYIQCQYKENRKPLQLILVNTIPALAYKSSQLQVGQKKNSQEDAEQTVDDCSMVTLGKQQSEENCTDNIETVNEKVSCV

As to `CN(CCO)CC1CC2c3ccccc3Sc3sccc3C2O1` (racemic) [Compound 25], the IC50 is 10 nM in experiment [1], 10 nM in experiment [2], 200 nM in experiment [3] and 126 nM in experiment [4].
